From patent US5032593A, “Method of treating bronchoconstriction with 1,3-unsymmetrical straight chain alkyl-substituted 8-phenylxanthines” (priority 1988, dated 1991)
Like-named read-outs stand apart in the source and are kept apart here.

Key:
[1] = test system: histamine-induced bronchoconstriction; assay: Reversal of histamine-induced bronchoconstriction in anesthetized guinea pigs; type: in vivo, guinea pig; details: for ED50: Cavia porcellus, iv, read-out: Reversal of histamine-induced bronchoconstriction, guinea pigs, ED50 ± s.e.m. (N); for Reversal of histamine-induced bronchoconstriction, maximum effect, % (N) ± s.e.m.: maximum percent reversal, at highest dose
Experimental: Adult male guinea pigs, weighing […], were anesthetized with an intraperitoneal injection of urethane (1.5 gm/kg). After a midline neck incision, the carotid artery and jugular vein were cannulated using polyethylene tubing. The trachea was cannulated using a 15 gauge Leuer Stub. Animals were ventilated at a constant rate and volume (55 breaths per minute and 1 ml per […] body weight) using a Harvard Apparatus small animal respirator. Airway pressure was measured from a side port of the tracheal cannula, using a Statham pressure transducer. Airway pressure and blood pressure were recorded using a Gould physiograph. Body temperature was maintained with a Narco temperature control unit.
Baseline airway and blood pressures were recorded for ten minutes. Aerosolized histamine (0.01%) was then delivered to the airways via a DeVilbiss® ultrasonic nebulizer, inserted in-line between the respirator and the animal. After the histamine-induced bronchoconstriction reached a plateau, as evidenced by an increased airway pressure, a dose-response curve was determined for each compound. […] The maximum effect of each compound was determined from the reversal of bronchoconstriction, as the percent decrease in the bronchoconstrictor response, after administration of the highest dose of that compound.
The ED50 values and maximum effect (%) were calculated using SAS and PROBIT computer analysis. […] The maximum effect is the maximum percent reversal of histamine-induced bronchoconstriction produced by the test compound.

[2] = test system: antigen-induced bronchoconstriction; assay: Prevention of antigen-induced bronchoconstriction in ovalbumin-sensitized guinea pigs; type: in vivo, guinea pig; details: 10 mg/kg, i.v., peak airway pressure increase as percent of vehicle animals
Text: Prevention of antigen-induced bronchoconstriction Male Hartley guinea pigs were given two intraperitoneal injections each containing 50 mcg ovalbumin in a 2:1 emulsion of Freund's complete adjuvant and sterile saline, for a total of 100 mcg ovalbumin per animal. At least three weeks post sensitization injection, sensitized guinea pigs (now approximately 400-600 g) were anesthetized with an intraperitoneal injection of urethane. The carotid artery, jugular vein and the trachea were cannulated. […] Airway pressure was measured and aortic blood pressure was monitored. Body temperature was maintained.
Following a stabilization period of approximately ten minutes, drug in vehicle or vehicle alone was administered intravenously in a volume of 1 ml. All drugs were tested at a dose of 10 mg/kg. One minute post injection, ovalbumin (10 mg/ml) was aerosolized into the airway via a DeVilbiss® ultrasonic nebulizer for a thirty minute period. Peak airway pressure attained during this thirty minute period was measured.

[3] = Cardiovascular effects (heart rate, blood pressure) in anesthetized guinea pigs; type: in vivo, guinea pig
Experimental: Aortic blood pressure was recorded from a pressure transducer and the signal was integrated to give a heart rate signal.
Each animal received a single intravenous injection of one compound. […] A group of control animals received injections of vehicle only. Changes in heart rate and blood pressure from pre-injection baseline values produced by drugs or vehicle were compared.

[4] = Acute toxicity in mice; type: in vivo, mouse; details: for Acute Toxicity, Approximate lethal dose: i.p.'; for Acute Toxicity (comments): animals showing the side effect
[5] = target: T1, A1 - Adenosine receptor (Rattus norvegicus, UniProt P25099); assay: Adenosine receptor binding, [3H]cyclohexyladenosine, rat cortical membranes; details: [3H]CHA, 23° C., pH 7.4, read-out: A1 - Adenosine receptor binding, Ki ± s.e.m.
T1 construct: rat cortical tissue was homogenized in ice cold 50 mM Tris HCl buffer; from tissue; host or cells: rat cerebral cortex membranes
T1 sequence (P25099 1-326): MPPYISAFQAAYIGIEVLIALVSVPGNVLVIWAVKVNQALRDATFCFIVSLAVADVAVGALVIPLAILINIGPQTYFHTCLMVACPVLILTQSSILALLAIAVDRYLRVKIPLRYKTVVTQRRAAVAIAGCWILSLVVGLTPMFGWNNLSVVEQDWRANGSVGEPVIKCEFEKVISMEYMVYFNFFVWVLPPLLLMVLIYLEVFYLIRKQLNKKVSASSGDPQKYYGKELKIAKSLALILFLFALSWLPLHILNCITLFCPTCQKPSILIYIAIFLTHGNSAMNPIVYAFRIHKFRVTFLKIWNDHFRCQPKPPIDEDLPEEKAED
Experimental: Briefly, rat cortical tissue was homogenized in ice cold 50 mM Tris HCl buffer (pH 7.4) using a Brinkman Polytron®. The homogenate was centrifuged at 48,000×g for 10 minutes and the resulting tissue pellet was suspended in fresh cold buffer to yield a tissue concentration of 10 mg (wet weight)/ml. […] Following this incubation, the tissue suspension was centrifuged as before and the resulting pellet was suspended in fresh buffer at a concentration of 7-10 mg tissue (wet weight)/ml. […] Dose-inhibition curves were generated with 10-12 concentrations of the test compound using triplicate incubations. The inhibition constants (Ki values) were calculated using EBDA, a log-logit iterative curve fitting program [McPhearson, Comput. Prog.

[6] = target: T2, A2 - Adenosine receptor (Rattus norvegicus, UniProt P30543); assay: Adenosine receptor binding, [3H]NECA, rat striatum homogenate; details: read-out: A2 - Adenosine receptor binding, Ki ± s.e.m.
T2 construct: rat striatum homogenate; from tissue; host or cells: rat striatum homogenate
T2 sequence (P30543 whole entry): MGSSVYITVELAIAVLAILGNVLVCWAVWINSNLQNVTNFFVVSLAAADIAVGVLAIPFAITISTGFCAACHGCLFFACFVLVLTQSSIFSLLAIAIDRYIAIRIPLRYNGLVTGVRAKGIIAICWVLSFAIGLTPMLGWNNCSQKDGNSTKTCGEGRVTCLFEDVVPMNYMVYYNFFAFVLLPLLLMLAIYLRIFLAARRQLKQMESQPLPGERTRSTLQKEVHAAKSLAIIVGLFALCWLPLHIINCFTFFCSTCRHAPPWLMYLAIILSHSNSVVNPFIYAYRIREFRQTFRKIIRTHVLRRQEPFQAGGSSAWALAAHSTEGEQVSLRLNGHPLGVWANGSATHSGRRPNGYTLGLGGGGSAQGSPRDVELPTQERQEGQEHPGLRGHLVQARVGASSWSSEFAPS
Experimental: A similar procedure utilizing rat striatum homogenate and [^3 H]NECA as ligand was employed to measure A2 -adenosine receptor binding.
The inhibition constants (Ki values) were calculated using EBDA, a log-logit iterative curve fitting program [McPhearson, Comput. Prog.

[7] = Emetic effects in ferrets; type: in vivo, ferret; details: 100 mg/kg
Experimental: Male ferrets, 12-15 weeks old, were fasted overnight prior to experimentation. Animals were given intraperitoneal injections of 100 mg/kg of compound or were dosed with vehicle for controls. Animals were then placed in cages with feed and water and observed for signs of emesis.

[8] = test system: phosphodiesterase; details: cited from earlier work
[9] = Solubility at the dose intended for the cardiovascular test; type: physicochemical; details: dose for guinea pig i.v. cardiovascular test
[10] = guinea pigs, i.v., dose required to reverse the histamine response by 50%
[11] = guinea pigs, i.v., 2 × histamine-reversal ED50

Compound | ED50 [1, 10] | Reversal of histamine-induced bronchoconstriction, maximum effect, % (N) ± s.e.m. ([1]; guinea pigs, i.v.) | Prevention of antigen-induced bronchoconstriction, % control [2] | % Basal blood pressure (mm Hg) [3, 11] | % Basal heart rate (N) [3, 11] | Acute Toxicity, Approximate lethal dose ([4]; N 3, route head 'p.o.) | Ki [5] | Ki [6] | Emetic effects, episodes/responder ± s.e. ([7]; ferrets, i.p., 1 hour) | Emetic effects, no. responding / no. tested in 1 hour ([7]; ferrets, i.p., 1 hour) | Acute Toxicity (comments) [4] | Acute Toxicity, Approximate lethal dose ([4]; second printed line of values, N 6, route head 'p.o.) | inhibition of phosphodiesterase [8] | ED50 [1] | % Basal blood pressure (mm Hg) ([3]; guinea pig, in vivo, iv) | % Basal heart rate (N) ([3]; guinea pig, in vivo, iv) | Emetic effects, no. responding / no. tested in 1 hour ([7]; in vivo, ip) | solubility at 2 × ED50 [9]
CCCn1c(=O)n(C)c(=O)c2[nH]c(-c3ccccc3)nc21 [1-Methyl-3-propyl-8-phenylxanthine, 1-Methyl-3-n-propyl-8-phenylxanthine] | 16.9 ± 2 mg/kg | 56.3 ± 3.2% | 106.5 ± 9.7 % control | 86 ± 10% | 104 ± 4% | > 250 mg/kg | 6.3 ± 0.17 nM | 93 ± 10.2 nM |  |  |  |  |  |  |  |  |  | 
CCCn1c(=O)c2[nH]c(-c3ccccc3)nc2n(C)c1=O [3-Methyl-1-propyl-8-phenylxanthine, 3-Methyl-1-n-propyl-8-phenylxanthine] | 2.1 ± 0.4 mg/kg | 79.0 ± 3.4% | 36.5 ± 2.0 % control | 134% | 100 ± 3% | > 500 mg/kg |  | 553 ± 55.7 nM | 2 episodes/responder | 2/8 | sedation 6/6 | 250 to 500 mg/kg |  |  |  |  |  | 
CC(C)Cn1c(=O)n(C)c(=O)c2[nH]cnc21 [IBMX, 3-isobutyl-1-methylxanthine] |  |  |  |  |  |  |  |  |  |  |  |  | potent inhibitors of phosphodiesterase |  |  |  |  | 
Cn1c(=O)c2[nH]c(-c3ccccc3)nc2n(C)c1=O [1,3-Dimethyl-8-phenylxanthine] |  | 22.0 ± 3.9% | 71.7 ± 1.6 % control |  |  | < 250 mg/kg |  | 644 ± 144 nM | 0 episodes/responder |  | sedation 3/3 |  |  | > 50 mg/kg | 94 ± 22% | 102 ± 9% | 0/4 | 
CCCn1c(=O)c2[nH]c(-c3ccccc3)nc2n(CCC)c1=O [1,3-Dipropyl-8-phenylxanthine] | > 50 mg/kg | 33.8 ± 8.5% | 98.1 ± 12.4 % control |  |  | > 250 mg/kg | 2.75 ± 0.29 nM | 116 ± 100 nM |  |  |  |  |  |  |  |  |  | insoluble
Cn1c(=O)c2[nH]cnc2n(C)c1=O [Theophylline] |  | 72.8 ± 6.6% |  | 66 ± 8% | 132 ± 4% |  |  |  | 10.7 ± 3.7 episodes/responder | 7/8 | seizures 6/6 |  |  | 35.1 ± 5.3 mg/kg |  |  |  | 
